# Source: the supplement of paper PMC10307832
# Compound: CN1CCN(CC1)C2=CC(=C(C=C2)NC3=NC=C4C(=N3)N(C5=CC=CC=C5C(=O)N4C)C)OC [XMD8-85] + NC(=O)Nc1cc(-c2cccc(F)c2)sc1C(=O)N[C@H]1CCCNC1 [AZD7762] (partner 0.2 µM)
# Test: relative viability (nuclei count vs DMSO), 5 days (fraction); higher = more cells survive
# Details: first compound 0.8 µM
# Procedure, shortened: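 One day after seeding in 1536-well plates, lung cancer cell lines were dosed by pin tool. Dosing was either single-drug or a fixed anchor-drug dose plus five library-drug doses (not always all listed) in √10 steps. After 5 days, nuclei were stained in one fix-and-stain step and counted on 4× images, and relative viability is the nuclei count of treated wells over that of vehicle wells, given as the median of duplicate plates.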
row,Cell Line,relative viability
1,LK-2,0.322
2,LOU-NH91,0.806
3,LU99A,0.407
4,LXF-289,1.16
5,NCI-H23,0.23
6,NCI-H322M,0.568
7,NCI-H358,0.667
8,NCI-H441,1.12
9,NCI-H460,0.69
10,NCI-H596,1.06
11,NCI-H647,0.586
12,NCI-H650,1
13,NCI-H1703,0.133
14,SW 900,0.589

# Same assay, conditions: first compound 2.53 µM
row,Cell Line,relative viability
1,201T,0.698
2,A-427,0.63
3,ABC-1,0.876
4,BEN,0.653
5,EKVX,0.729
6,EMC-BAC-2,1.1
7,EPLC-272H,0.229
8,H3255,0.925
9,HARA,0.283
10,HCC-15,1.12
11,HCC-44,1.01
12,HCC-78,1.13
13,HCC-366,0.336
14,HCC-827,0.263
15,LC-2-ad,0.779
16,LCLC-97TM1,0.286

row,Cell Line,relative viability
1,LCLC-103H,0.851
2,LK-2,0.254
3,LOU-NH91,0.835
4,LU99A,0.378
5,LXF-289,1.12
6,NCI-H23,0.18
7,NCI-H322M,0.451
8,NCI-H358,0.639
9,NCI-H441,1.11
10,NCI-H460,0.659
11,NCI-H596,1.1
12,NCI-H647,0.503
13,NCI-H650,0.829
14,NCI-H1703,0.119
15,SW 900,0.626

# Same assay, conditions: first compound 8 µM
row,Cell Line,relative viability
1,201T,0.575
2,A-427,0.478
3,ABC-1,0.859
4,BEN,0.463
5,CAL-12T,0.466
6,EKVX,0.646
7,EMC-BAC-2,0.789
8,EPLC-272H,0.273
9,H3255,0.554
10,HARA,0.273
11,HCC-15,1.02
12,HCC-44,1.06
13,HCC-78,0.499
14,HCC-366,0.259
15,HCC-827,0.206
16,HOP-62,0.421
17,LC-2-ad,0.596

row,Cell Line,relative viability
1,LCLC-97TM1,0.293
2,LCLC-103H,0.781
3,LK-2,0.284
4,LOU-NH91,0.59
5,LU99A,0.341
6,LXF-289,0.995
7,NCI-H23,0.2
8,NCI-H322M,0.38
9,NCI-H358,0.399
10,NCI-H441,0.562
11,NCI-H460,0.432
12,NCI-H596,0.966
13,NCI-H647,0.198
14,NCI-H650,0.781
15,NCI-H1703,0.107
16,SW 900,0.304
